US12391919B2, “Culture medium, coating matrix and method for maturing midbrain dopaminergic progenitor cells” (NUWACELL BIOTECHNOLOGIES CO., LTD., priority 2022, dated 2025)
Structures can show the parent of a compound that is named as a salt.

Key:
Assay type in all cases: cell-based, human
imDAPs [1] = test: qRT-PCR analysis of imDAP-specific markers in expanded imDAPs; details: Example 3; 3 μM CHIR99021 (vs 0, 1.25 μM) during expansion; 5 days; FIG. 1C
Description: • 1. Individualize and collect cells by either Accutase or TrypLE treatment. • 2. Wash cells with 1 ml PBS and pellet cells at 250×g for 15 sec. • 3. Remove supernatant, add ˜200 μl of 4% PFA, mix and fix for 10 min at RT. • 4. Pellet cells at 350×g for 5 min. • 5. Wash cells by 1 ml of FACS buffer and pellet cells at 350×g for 5 min. • 6. Remove supernatant, add 200 μl/tube of FACS buffer/0.1% TritonX, mix for 10 min at RT. • 7. Wash cells by 1 ml of FACS buffer and pellet cells at 350×g for 5 min. • 8. Remove supernatant, add 200 μl/tube of primary antibody diluted in FACS buffer, mix gently, and incubate for 30 min at RT. • 9. Wash cells by 1 ml of FACS buffer and pellet cells at 350×g for 5 min. • 10. Remove supernatant, and add 200 μl of secondary antibody diluted in FACS buffer, mix gently, and incubate for 30 min at RT. • 11. Wash cells by 1 ml of FACS buffer and pellet cells at 300×g for 5 min. • 12. Remove supernatant, add 200 μl of FACS buffer, and run samples on the flow cytometry. (2) qRT-PCR • 1. For qRT-PCR analysis of mRNA gene expression, RNA should be harvested from at least 2×10^6 cells. • 2. […] Analyze the samples by running a quantitative PCR on the LightCycler 480 instrument using a 40× cycle two-step protocol with a 60° C., 60 sec annealing/elongation step and a 95° C., 30 sec denaturation step. […]

imDAPs [2] = test: Flow cytometry (FACS) analysis of FOXA2 expression in expanded imDAPs; details: Example 6
Description: • 1. Individualize and collect cells by either Accutase or TrypLE treatment. • 2. Wash cells with 1 ml PBS and pellet cells at 250×g for 15 sec. • 3. Remove supernatant, add ˜200 μl of 4% PFA, mix and fix for 10 min at RT. • 4. Pellet cells at 350×g for 5 min. • 5. Wash cells by 1 ml of FACS buffer and pellet cells at 350×g for 5 min. • 6. Remove supernatant, add 200 μl/tube of FACS buffer/0.1% TritonX, mix for 10 min at RT. • 7. Wash cells by 1 ml of FACS buffer and pellet cells at 350×g for 5 min. • 8. Remove supernatant, add 200 μl/tube of primary antibody diluted in FACS buffer, mix gently, and incubate for 30 min at RT. • 9. Wash cells by 1 ml of FACS buffer and pellet cells at 350×g for 5 min. • 10. Remove supernatant, and add 200 μl of secondary antibody diluted in FACS buffer, mix gently, and incubate for 30 min at RT. • 11. Wash cells by 1 ml of FACS buffer and pellet cells at 300×g for 5 min. • 12. Remove supernatant, add 200 μl of FACS buffer, and run samples on the flow cytometry. (2) qRT-PCR • 1. For qRT-PCR analysis of mRNA gene expression, RNA should be harvested from at least 2×10^6 cells. • 2. Harvest cells, add 350 μl of buffer RLT+1% (vol/vol) s-mercaptoethanol to the well, transfer the lysate to a 1.5 ml tube, and put it immediately on ice. • 3. Perform RNA extraction using the Tiangen Kit (DP430), and follow the manufacturer's protocol ‘Purification of total RNA from animal and human cells’. • 4. When the RNA extraction was completed, determine the RNA concentration using a Nanodrop instrument. • 5. Perform the first-strand cDNA synthesis reaction with 1 μg of RNA using the HiScript TM II Q RT SuperMIX for qPCR(+gDNA wiper) Kit (Vazyme, #R223-01) for RT-qPCR. Follow the manufacturer's ‘First-Strand cDNA Synthesis’ protocol. This reaction would yield a 20 μl product. • 6. Dilute the 10 μl cDNA product in 80 μl of nuclease-free water. • 7. Pipette the diluted cDNA product (1 μl), Sybr green master mix (5 μl, Transgen, #AQ131) and 0.95 μM reverse/forward primer mix (4 μl) into a 384-well PCR plate in triplicate, either manually or using an automated pipetting robot. The complete primer panel included the target genes and the housekeeping gene (RPL13A). In the analysis, also included a sample of undifferentiated hPSCs to determine the gene expression levels relative to the expression in hPSCs. • 8. Analyze the samples by running a quantitative PCR on the LightCycler 480 instrument using a 40× cycle two-step protocol with a 60° C., 60 sec annealing/elongation step and a 95° C., 30 sec denaturation step. The average CT values from the three technical replicates were used for calculations of relative gene expression using the ΔΔCT method. For each gene, calculate the FC of the differentiated samples relative to the undifferentiated control sample using the housekeeping gene for normalization. Next, calculate the average of the FC values on the basis of the housekeeping gene. (3) Immunocytochemical Analysis • 1. Cell fixation: Remove the medium from the cells and wash with PBS. Add 4% (wt/vol) PFA (e.g., 200 μl to a well in a 48-well plate) and incubate at room temperature (RT) for 15 min. after incubation, wash the cells three times in PBS. • 2. Blocking: Remove PBS from the wells and add blocking solution to the cells, add enough volume to cover the cells. Leave the cells in blocking solution for 1 h at RT. • 3. Primary antibodies incubation: Remove the blocking solution from the cells and add the primary antibody solutions (˜100 μl/cm^2). […]

imDAPs [3] = test: imDAP maturation: cell morphology, adhesion and cell yield; details: Example 13; maturation media supplemented with 10 μM Y27632; day 7; FIG. 8A
Description: imDAPs were produced according to the method described in CN201910169525.0, and expanded as described in Example 10. […] MM-H used in Example 11 contained the following components: Neurobasal™ medium, 1% (v/v) Glutamax, 0.5 mM Db-cAMP sodium salt, 200 μM ascorbic acid, 20 ng/ml BDNF, 20 ng/ml GDNF, 1 ng/ml TGF-β3, 10 μM DAPT, HhPLT (0.5%, 1%, 2%). MM-B used in Example 11 contained the following components: Neurobasal, 1% (v/v) Glutamax, 0.5 mM Db-cAMP sodium salt, 200 μM ascorbic acid, 20 ng/ml BDNF, 20 ng/ml GDNF, 1 ng/ml TGF-β3, 10 μM DAPT, 2% (v/v) B27 (50×) (as control). The above HhPLT was produced from hPLT as follows. The hPLT was centrifuged at 3000 g for 30 min at 4° C. to obtain the supernatant, which was heated to 56° C. for 30 min. The suspension was finally cooled down to 4° C. at least 5 min, and spun at 3000 g for 30 min at 4° C. to obtain the HhPLT supernatant. Aliquots were prepared and stored at −80° C. until use. The above Medium was changed every 3rd day. On day 7, the imDAPs at early maturation stage were dissociated enzymatically with 1× TrypLE, centrifuged at 250 g for 5 minutes.
imDAPs were produced according to the method described in CN201910169525.0, and expanded as described in Example 10. […] Medium was changed every 3rd day. On day 7, the imDAPs at early maturation stage were dissociated enzymatically with 1× TrypLE, centrifuged at 250 g for 5 minutes. Cells were collected for RT-qPCR analysis of EN1, LMX1A, FOXA2, NURR1, SOX6 and TH gene expression. The maturation medium used in Example 12 contained the following components: Neurobasal™ medium, 1% (v/v) Glutamax, 1% (v/v) HhPLT, 0.5 mM Db-cAMP sodium salt, 200 μM ascorbic acid, 20 ng/mL BDNF, 20 ng/mL GDNF, 1 ng/mL TGF-β3, 10 μM DAPT.
imDAPs were produced according to the method described in CN201910169525.0, and expanded as described in Example 10. […] Cells were collected and counted by Vi-cell cytometer. The cells were analyzed by RT-qPCR for EN1, LMX1A, FOXA2, NURR1, SOX6 and TH gene expression. […]

SMILES	mDAP marker expression (EN1, LMX1A, FOXA2) (imDAPs [1])	percentage of Foxa2-expressing cells (imDAPs [2]; 10 μM Y27632 vs 5 μM Blebbistatin, VTN-coated, Day 6, FIG. 2)	percentage of Foxa2-expressing cells during passages (imDAPs [2]; medium with Y27632)	cell adhesion and growth (imDAPs [3])
Cc1cnc(-c2cnc(NCCNc3ccc(C#N)cn3)nc2-c2ccc(Cl)cc2Cl)[nH]1 [CHIR99021]	allowed better maintenance of mDAP marker expression	–	–	–
C[C@@H](N)[C@H]1CC[C@H](C(=O)Nc2ccncc2)CC1 [Y27632, (R)-(+)-trans-4-(1-aminoethyl)-N-(4-pyridyl) cyclohexanecarboxamide dihydrochloride]	–	capable of improving the percentage of Foxa2-expressing cells than Blebbistatin	still decreased during passages	could promote cell adhesion at a certain degree
